What was measured:
HepG2 [1] = assay: Cytotoxicity against human HepG2 cells assessed as reduction in cell viability incubated for 72 hrs by MTT assay; type: functional, cell-based; conditions: HepG2, 72 h
HCT-116 [2] = assay: Cytotoxicity against human HCT-116 cells assessed as reduction in cell viability incubated for 72 hrs by MTT assay; type: functional, cell-based; conditions: HCT-116, 72 h
MCF7 [3] = assay: Cytotoxicity against human MCF7 cells assessed as reduction in cell viability incubated for 72 hrs by MTT assay; type: functional, cell-based; conditions: MCF7, 72 h
MCF7 [4] = assay: Antiproliferative activity against human MCF7 cells assessed as reduction in cell viability; type: functional, cell-based
[5] = target: T1, Vascular endothelial growth factor receptor 2 (Homo sapiens, UniProt P35968); assay: Inhibition of VEGFR2 (unknown origin)
T1 sequence (P35968 whole entry): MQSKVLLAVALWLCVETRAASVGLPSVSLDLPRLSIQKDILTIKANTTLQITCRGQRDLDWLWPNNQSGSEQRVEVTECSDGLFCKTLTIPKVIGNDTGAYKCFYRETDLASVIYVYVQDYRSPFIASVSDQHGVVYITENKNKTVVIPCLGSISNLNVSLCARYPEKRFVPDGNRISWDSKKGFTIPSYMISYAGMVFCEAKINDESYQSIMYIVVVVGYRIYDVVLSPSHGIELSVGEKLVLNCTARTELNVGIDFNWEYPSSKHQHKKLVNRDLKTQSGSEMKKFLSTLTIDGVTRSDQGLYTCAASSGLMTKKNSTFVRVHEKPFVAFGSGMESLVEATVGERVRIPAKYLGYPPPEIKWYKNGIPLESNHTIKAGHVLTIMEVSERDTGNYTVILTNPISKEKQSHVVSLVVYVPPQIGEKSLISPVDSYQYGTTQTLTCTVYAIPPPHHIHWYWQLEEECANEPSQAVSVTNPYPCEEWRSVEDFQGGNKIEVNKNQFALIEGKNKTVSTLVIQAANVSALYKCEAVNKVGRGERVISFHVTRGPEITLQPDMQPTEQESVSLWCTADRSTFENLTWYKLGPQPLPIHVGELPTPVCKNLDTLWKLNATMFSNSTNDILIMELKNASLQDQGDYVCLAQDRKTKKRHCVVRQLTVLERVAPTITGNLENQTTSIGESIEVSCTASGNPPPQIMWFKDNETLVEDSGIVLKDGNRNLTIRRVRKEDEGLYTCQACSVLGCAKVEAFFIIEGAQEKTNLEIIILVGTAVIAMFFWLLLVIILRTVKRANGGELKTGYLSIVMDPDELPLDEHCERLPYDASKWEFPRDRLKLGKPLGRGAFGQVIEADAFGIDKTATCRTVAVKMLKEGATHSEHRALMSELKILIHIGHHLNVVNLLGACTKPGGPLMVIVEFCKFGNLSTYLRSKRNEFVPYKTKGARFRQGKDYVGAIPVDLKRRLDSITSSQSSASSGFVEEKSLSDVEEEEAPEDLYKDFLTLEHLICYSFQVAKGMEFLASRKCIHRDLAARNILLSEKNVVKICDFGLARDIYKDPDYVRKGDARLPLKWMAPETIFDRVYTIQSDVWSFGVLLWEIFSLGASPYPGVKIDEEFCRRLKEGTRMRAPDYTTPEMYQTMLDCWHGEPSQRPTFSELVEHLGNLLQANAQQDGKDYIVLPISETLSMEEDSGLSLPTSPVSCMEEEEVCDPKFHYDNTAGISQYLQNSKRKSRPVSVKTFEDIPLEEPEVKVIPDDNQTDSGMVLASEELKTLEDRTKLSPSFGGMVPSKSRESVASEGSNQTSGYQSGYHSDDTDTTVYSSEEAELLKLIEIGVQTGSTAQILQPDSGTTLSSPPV

[6] = target: Hepatocyte growth factor receptor (Homo sapiens, UniProt P08581); assay: Inhibition of c-Met (unknown origin)
Sequence of Hepatocyte growth factor receptor (P08581 whole entry): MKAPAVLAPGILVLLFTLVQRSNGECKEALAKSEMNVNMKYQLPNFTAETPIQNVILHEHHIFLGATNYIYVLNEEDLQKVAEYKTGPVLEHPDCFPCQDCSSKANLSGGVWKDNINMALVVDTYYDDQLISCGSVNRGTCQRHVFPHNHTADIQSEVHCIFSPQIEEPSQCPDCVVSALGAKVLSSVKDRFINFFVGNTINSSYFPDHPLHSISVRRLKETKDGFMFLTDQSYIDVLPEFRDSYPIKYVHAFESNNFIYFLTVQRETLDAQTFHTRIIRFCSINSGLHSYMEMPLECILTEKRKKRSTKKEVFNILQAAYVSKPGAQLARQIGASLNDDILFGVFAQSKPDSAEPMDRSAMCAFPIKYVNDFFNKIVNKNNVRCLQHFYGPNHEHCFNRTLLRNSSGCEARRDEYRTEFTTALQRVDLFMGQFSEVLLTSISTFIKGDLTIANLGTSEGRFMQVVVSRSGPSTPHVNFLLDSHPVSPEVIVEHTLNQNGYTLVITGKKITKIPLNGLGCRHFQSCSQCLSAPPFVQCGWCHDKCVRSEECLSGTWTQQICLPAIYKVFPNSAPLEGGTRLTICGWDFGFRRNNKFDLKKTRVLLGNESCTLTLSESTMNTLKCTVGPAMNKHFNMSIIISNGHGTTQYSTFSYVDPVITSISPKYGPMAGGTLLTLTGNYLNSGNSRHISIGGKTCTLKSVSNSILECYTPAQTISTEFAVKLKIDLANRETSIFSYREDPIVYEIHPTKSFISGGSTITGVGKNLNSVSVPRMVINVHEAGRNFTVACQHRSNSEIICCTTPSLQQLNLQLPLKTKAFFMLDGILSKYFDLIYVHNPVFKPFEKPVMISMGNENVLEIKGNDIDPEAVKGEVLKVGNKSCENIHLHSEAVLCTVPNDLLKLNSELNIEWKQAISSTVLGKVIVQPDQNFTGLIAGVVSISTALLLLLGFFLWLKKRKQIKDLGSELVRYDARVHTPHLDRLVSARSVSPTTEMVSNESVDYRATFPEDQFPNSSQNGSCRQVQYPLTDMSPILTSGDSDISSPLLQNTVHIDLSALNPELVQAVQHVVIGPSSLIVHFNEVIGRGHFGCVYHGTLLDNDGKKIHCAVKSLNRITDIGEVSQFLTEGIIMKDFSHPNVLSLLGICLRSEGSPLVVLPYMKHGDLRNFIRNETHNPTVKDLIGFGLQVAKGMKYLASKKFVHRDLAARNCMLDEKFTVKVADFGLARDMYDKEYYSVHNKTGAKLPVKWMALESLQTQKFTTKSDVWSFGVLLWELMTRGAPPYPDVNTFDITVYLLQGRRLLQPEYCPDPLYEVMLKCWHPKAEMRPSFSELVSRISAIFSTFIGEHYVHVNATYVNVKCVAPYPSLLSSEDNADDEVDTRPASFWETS

MHCC97H = assay: Antiproliferative activity against human MHCC97H cells assessed as reduction in cell viability incubated for 48 hrs by CCK-8 assay; type: functional, cell-based
[7] = Cytotoxicity against human HUVEC cells assessed as reduction in cell viability by CCK-8 assay; type: toxicity, cell-based
[8] = target: T1, Vascular endothelial growth factor receptor 2; assay: Inhibition of human VEGFR-2 by ELISA method
HepG2 [9] = assay: Antiproliferative activity against human HepG2 cells assessed as reduction in cell growth incubated for 24 hrs by MTT assay; type: functional, cell-based; conditions: HepG2, 24 h
MCF7 [10] = assay: Antiproliferative activity against human MCF7 cells assessed as reduction in cell growth incubated for 24 hrs by MTT assay; type: functional, cell-based; conditions: MCF7, 24 h
HCT-116 [11] = assay: Antiproliferative activity against human HCT-116 cells assessed as reduction in cell growth incubated for 24 hrs by MTT assay; type: functional, cell-based; conditions: HCT-116, 24 h
[12] = target: T1, Vascular endothelial growth factor receptor 2; assay: Inhibition of VEGFR2 (unknown origin) using Poly-(Glu,Tyr 4:1) peptide as substrate incubated for 1 hr by ELISA method
HepG2 [13] = assay: Cytotoxicity against human HepG2 cells assessed as reduction in cell growth incubated for 48 hrs by MTT assay; type: functional, cell-based; conditions: HepG2, 48 h
HCT-116 [14] = assay: Cytotoxicity against human HCT-116 cells assessed as reduction in cell growth incubated for 48 hrs by MTT assay; type: functional, cell-based; conditions: HCT-116, 48 h
MCF7 [15] = assay: Cytotoxicity against human MCF7 cells assessed as reduction in cell viability incubated for 48 hrs by MTT assay; type: functional, cell-based; conditions: MCF7, 48 h
EA.hy 926 = assay: Antiproliferative activity against human EA.hy 926 cells assessed as reduction in cell viability incubated for 48 hrs by MTT assay; type: functional, cell-based; conditions: EA.hy 926, 48 h
U-87 MG = assay: Antiproliferative activity against human U87 cells assessed as inhibition of cell viability incubated for 72 hrs by MTT assay; type: functional, cell-based, U-87MG ATCC
[16] = target: T1, Vascular endothelial growth factor receptor 2; assay: Inhibition of GST-tagged human recombinant VEGFR2
HepG2 [17] = assay: Antiproliferative activity against human HepG2 cells assessed as cell growth inhibition incubated for 24 hrs by MTT assay; type: functional, cell-based; conditions: HepG2, 24 h
PC-3 = assay: Antiproliferative activity against human PC-3 cells assessed as cell growth inhibition incubated for 24 hrs by MTT assay; type: functional, cell-based; conditions: PC-3, 24 h
WI-38 = assay: (§1) Antiproliferative activity against human WI-38 cells assessed as cell growth inhibition incubated for 24 hrs by MTT assay; type: toxicity, cell-based; conditions: wi-38
[18] = target: RAC-alpha serine/threonine-protein kinase (Homo sapiens, UniProt P31749); assay: Inhibition of AKT1 (unknown origin)
Sequence of RAC-alpha serine/threonine-protein kinase (P31749 whole entry): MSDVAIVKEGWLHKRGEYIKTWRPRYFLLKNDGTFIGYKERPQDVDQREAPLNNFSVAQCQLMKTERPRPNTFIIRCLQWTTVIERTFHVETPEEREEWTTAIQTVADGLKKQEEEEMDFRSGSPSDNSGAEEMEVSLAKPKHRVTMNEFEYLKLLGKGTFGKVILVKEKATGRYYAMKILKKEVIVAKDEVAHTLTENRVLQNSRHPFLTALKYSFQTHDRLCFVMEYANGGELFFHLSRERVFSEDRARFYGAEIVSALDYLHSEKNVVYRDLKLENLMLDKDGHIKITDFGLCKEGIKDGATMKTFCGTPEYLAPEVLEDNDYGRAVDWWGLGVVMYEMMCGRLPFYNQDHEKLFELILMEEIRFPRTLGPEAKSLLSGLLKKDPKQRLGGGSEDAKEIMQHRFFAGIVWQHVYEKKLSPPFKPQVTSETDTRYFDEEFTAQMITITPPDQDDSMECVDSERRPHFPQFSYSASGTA

HepG2 [19] = assay: Antiproliferative activity against human HepG2 cells assessed as inhibition of cell growth incubated for 24 hrs by MTT assay; type: functional, cell-based; conditions: HepG2, 24 h
MCF7 [20] = assay: Antiproliferative activity against human MCF7 cells assessed as inhibition of cell growth incubated for 24 hrs by MTT assay; type: functional, cell-based; conditions: MCF7, 24 h
HCT-116 [21] = assay: Antiproliferative activity against human HCT-116 cells assessed as inhibition of cell growth incubated for 24 hrs by MTT assay; type: functional, cell-based; conditions: HCT-116, 24 h
MCF7 [22] = assay: Cytotoxicity against human MCF7 cells assessed as reduction in cell viability; type: functional, cell-based
[23] = as §1; type: toxicity, cell-based; conditions: human, WI-38 cells
[24] = Half life in human at 140 mg
[25] = Tmax in human at 140 mg; type: ADME
[26] = Cmax in human at 140 mg; type: ADME

## CCOC(=O)c1ccc(NC(=O)c2ccc(NC(=O)CN3C(=O)S/C(=C\c4ccccc4)C3=O)cc2)cc1
HepG2 [1]
  IC50: 11.2 µM
HCT-116 [2]
  IC50: 8.99 µM
MCF7 [3]
  IC50: 7.1 µM

## COCCOCCOCCOCCOCCOC(=O)c1cc(C(=O)OCCOCCOCCOCCOCCOC)cc(-n2cc(Cn3ncc4ccccc4c3=O)nn2)c1
MCF7 [4]
  IC50: 8.84 µM

## COCCOc1cc2ncnc(Nc3ccc(NC(=O)CC(=O)Nc4ccc(F)cc4)cc3F)c2c2c1OCCO2
[5]
  IC50: 0.0048 µM
[6]
  IC50: 0.0058 µM
MHCC97H
  IC50: 0.0157 µM
[7]
  IC50: 0.0008 µM

## CCn1c(SCC(=O)Nc2ccc(/C(C)=N/O)cc2)nc2ccccc2c1=O
[8]
  IC50: 2.5 µM
HepG2 [9]
  IC50: 3.97 µM
MCF7 [10]
  IC50: 4.83 µM
HCT-116 [11]
  IC50: 4.58 µM

## Cc1cc(C)nc(NS(=O)(=O)c2ccc(/N=N/c3ccc(C4=NCC(=O)N(C)c5ccc(Cl)cc54)cc3)cc2)n1
[12]
  IC50: 0.0001 µM
HepG2 [13]
  IC50: 8.98 µM
HCT-116 [14]
  IC50: 7.77 µM
MCF7 [15]
  IC50: 6.99 µM

## O=C(Nc1ccc(Oc2ccnc(C(=O)NCCCCNC(=O)C3CC4C=CC3C4)c2)cc1)Nc1ccc(Cl)c(C(F)(F)F)c1 (configuration not stated)
[5]
  IC50: 0.23 µM
EA.hy 926
  IC50: 0.047 µM
U-87 MG
  IC50: 63.6 µM

## CN1CCC2=C1C1C(=O)NC(c3ccccc3)=NC1S2 (configuration not stated)
[16]
  IC50: 0.126 µM
HepG2 [17]
  IC50: 3.11 µM
PC-3
  IC50: 2.15 µM
WI-38
  IC50: 12.5 µM
[18]
  IC50: 6.96 µM

## C/C(=N\NC(=O)c1ccccc1O)c1ccc(NC(=O)CSc2nc3ccccc3c(=O)n2-c2ccccc2)cc1
[8]
  IC50: 0.34 µM
HCT-116 [11]
  IC50: 3.74 µM
HepG2 [19]
  IC50: 3.74 µM
MCF7 [20]
  IC50: 5 µM
HCT-116 [21]
  IC50: 6.77 µM

## Cc1ccc2oc(CCCC(=O)Nc3ccc(S(=O)(=O)NC(=O)NC4CCCCC4)cc3)nc2c1
[5]
  IC50: 0.07 µM
MCF7 [22]
  IC50: 5.5 µM

## CCOC(=O)c1c(NC(=S)Nc2cc(C)ccc2Cl)sc2c1N(C)CC2
HepG2 [17]
  IC50: 3.02 µM
PC-3
  IC50: 3.12 µM
[23]
  IC50 at 24 h: 35.3 µM

## COc1cc2nccc(Oc3ccc(NC(=O)C4(C(=O)Nc5ccc(F)cc5)CC4)cc3)c2cc1OC [CABOZANTINIB]
[24]
  half-life: 112 h
[25]
  Tmax: 4 h
[26]
  Cmax: 554 ng/mL
